8 compounds from ChEMBL document CHEMBL5370597, “Fungal Duel between Penicillium brasilianum and Aspergillus nomius Results in Dual Induction of Miktospiromide A and Kitrinomycin A” (J Nat Prod, 2023) can be followed below.

Values after ≈ are worked out from the molar mass of the structure shown. Active and inactive are the calls of the source.

The nature of data set [1]: Cytotoxicity against mouse NS-1 cells incubated for 72 hrs by resazurin staining based microplate reader assay. Format: functional. In general terms: The colour change of resazurin is a common sign of viable cells or microbes.
For a further data set, the system named is Giardia intestinalis. The data set is described as follows: Anti-protozoal activity against Giardia duodenalis 713 assessed as inhibition of protozoal growth measured after 72 hrs under anaerobic conditions. It is filed as functional.
In a further data set the test system is Staphylococcus aureus. Briefly: Antibacterial activity against Staphylococcus aureus ATCC 25923 assessed as bacterial growth inhibition incubated for 48 hrs by resazurin staining based microplate reader assay. It is filed as functional.
Data set [2] concerns Aspergillus nomiae. The data set is described as follows: Antifungal activity against Aspergillus nomius MST-FP2004 assessed as fungal growth rate at 20 ug by disc diffusion assay. It is filed as functional, organism-based. The following applies: dose 20.0 µg.
The subject of data set [3] is Aspergillus nomiae. The data set is described as follows: Antifungal activity against Aspergillus nomius MST-FP2004 assessed as change in morphology at 20 ug by disc diffusion assay. It is filed as functional, organism-based. The following applies: dose 20.0 µg. (In general: A growth-free zone around the sample is the usual read-out of agar diffusion tests.)
A further data set relates to Escherichia coli. The data set is described as follows: Antibacterial activity against Escherichia coli ATCC 25922 assessed as bacterial growth inhibition incubated for 48 hrs by resazurin staining based microplate reader assay. Format: functional.
Another data set relates to Candida albicans. The data set is described as follows: Antifungal activity against Candida albicans ATCC 10231 assessed as fungal growth inhibition incubated for 48 hrs by bromocresol green staining based microplate reader assay. Format: functional.
The test system of another data set is DU-145. The data set is described as follows: Cytotoxicity against human DU-145 cells incubated for 72 hrs by resazurin staining based microplate reader assay. Format: functional.
The test system of the next data set is Tritrichomonas foetus. Briefly: Antiprotozoal activity against Tritrichomonas foetus KV-1 strain assessed as inhibition of protozoal growth measured after 72 hrs under anaerobic conditions. It is filed as functional.
The next data set relates to Bacillus subtilis. The data set is described as follows: Antibacterial activity against Bacillus subtilis ATCC 6633 assessed as bacterial growth inhibition incubated for 48 hrs by resazurin staining based microplate reader assay. Format: functional.
For the next data set, the system named is MCF7. Briefly: Cytotoxicity against human MCF7 cells incubated for 72 hrs by resazurin staining based microplate reader assay. It is filed as functional.
The next data set has as its system Saccharomyces cerevisiae. The data set is described as follows: Antifungal activity against Saccharomyces cerevisiae ATCC 9763 assessed as fungal growth inhibition incubated for 48 hrs by bromocresol green staining based microplate reader assay. It is filed as functional.
A further data set deals with NFF. The data set is described as follows: Cytotoxicity against human NFF cells incubated for 72 hrs by resazurin staining based microplate reader assay. Format: toxicity, cell-based.
Data set [4] deals with Penicillium brasilianum. The data set is described as follows: Antifungal activity against Penicillium brasilianum MST-FP1927 assessed as fungal growth rate at 20 ug by disc diffusion assay. It is filed as functional, organism-based. Conditions: dose 20.0 µg.
Data set [5] relates to Penicillium brasilianum. Briefly: Antifungal activity against Penicillium brasilianum MST-FP1927 assessed as change in morphology at 20 ug by disc diffusion assay. Format: functional, organism-based. Conditions: dose 20.0 µg.
The test system of data set [6] is Aspergillus nomiae. The data set is described as follows: Antifungal activity against Aspergillus nomius MST-FP2004 assessed as reduction in growth diameter at 20 ug by disc diffusion assay relative to control. Format: functional. More on the design: scale not given: the % may be the effect or the level left. Conditions: dose 20 µg.

Take `CO[C@@]12[C@H](COC(N)=O)C3=C(C(=O)C(C)=C(N)C3=O)N1C[C@@H]1N[C@@H]12` [MITOMYCIN]: the LD99 in data set [1] is 0.93 µM.

Consider `Cc1ncc([N+](=O)[O-])n1CCO` [METRONIDAZOLE], for which, in the data set on Giardia intestinalis, the LD99 worked out at 9.1 µM.

As to `COC(=O)c1oc(=O)c2c(O)c(C(=O)O)c(O)cc2c1O`, the MIC in the data set with Staphylococcus aureus, in the data set on Escherichia coli, in the data set on Candida albicans, in the data set with Bacillus subtilis and in the data set with Saccharomyces cerevisiae was greater than 100 µg/mL throughout. The outcome in the data set with Aspergillus nomiae [2] and with Aspergillus nomiae [3] was inactive. In addition, the LD99 (in [1]; in the data set with DU-145; in the data set with Tritrichomonas foetus; with Giardia intestinalis; in the data set with MCF7; in the data set with NFF) was greater than 100 µM throughout.

Take `CCCCCCC/C=C/C1=CC(=O)[C@]2(O1)C(=O)N[C@@](C)(O)[C@H]2O`: the MIC – broadly, the smallest concentration in the dilution series that meets the test's criterion for growth inhibition – in the data set on Staphylococcus aureus was 50 µg/mL (≈ 155 µM); in the data set on Escherichia coli, greater than 100 µg/mL; in the data set with Candida albicans it was greater than 100 µg/mL; with Bacillus subtilis it was 25 µg/mL (≈ 77.3 µM); with Saccharomyces cerevisiae it was greater than 100 µg/mL. Moreover, the LD99 was 77 µM in [1]; 39 µM in the data set with DU-145; greater than 100 µM in the data set with Tritrichomonas foetus; 39 µM in the data set on Giardia intestinalis; greater than 100 µM in the data set with MCF7; greater than 100 µM in the data set on NFF. In addition, the outcome in the data set with Penicillium brasilianum [4] and in the data set on Penicillium brasilianum [5] was inactive.

In the case of GENTAMICIN, the values for the minimal inhibitory concentration (MIC) with Staphylococcus aureus, in the data set with Escherichia coli and in the data set on Bacillus subtilis were 0.38 µg/mL, 0.81 µg/mL and 0.38 µg/mL, respectively.

Turning to `COC(=O)c1oc(=O)c2c(O)c3c(O)c(C(C)=O)oc3cc2c1O`, the MIC is greater than 100 µg/mL in the data set with Staphylococcus aureus; greater than 100 µg/mL with Escherichia coli; greater than 100 µg/mL in the data set with Candida albicans; 42 µg/mL (≈ 126 µM) in the data set with Bacillus subtilis; greater than 100 µg/mL in the data set on Saccharomyces cerevisiae. The outcome in the data set with Aspergillus nomiae [2] and in the data set with Aspergillus nomiae [3] was inactive. Also, the LD99 is 7.8 µM in data set [1]; greater than 100 µM in the data set with DU-145; 4.8 µM with Tritrichomonas foetus; 37 µM with Giardia intestinalis; greater than 100 µM in the data set on MCF7; greater than 100 µM in the data set with NFF. For the same compound, the Activity in the data set on Aspergillus nomiae [6] was roughly 7%.

Turning to `C[C@@H]1[C@H](O)[C@@H](C)/C=C/C=C/C=C/C=C/C=C/C=C/C=C/[C@H](O[C@@H]2O[C@H](C)[C@@H](O)[C@H](N)[C@@H]2O)C[C@@H]2O[C@](O)(C[C@@H](O)C[C@@H](O)[C@H](O)CC[C@@H](O)C[C@@H](O)CC(=O)O[C@H]1C)C[C@H](O)[C@H]2C(=O)O` [AMPHOTERICIN B], the figures for the MIC with Candida albicans and in the data set with Saccharomyces cerevisiae were 0.09 µg/mL (≈ 0.0974 µM) and 0.28 µg/mL (≈ 0.303 µM), respectively.

In the case of `CN[C@@H]1C[C@H]2O[C@@](C)([C@@H]1OC)n1c3ccccc3c3c4c(c5c6ccccc6n2c5c31)C(=O)NC4` [STAUROSPORINE], the LD99 in the data set with DU-145 is 3.4 µM; with Tritrichomonas foetus, 1.2 µM; in the data set on MCF7, 54 µM; with NFF, 0.09 µM.
